In patent US9920056B2, “2-oxo-1,3,8-triazaspiro[4.5]decan-3-yl] carboxylic acid derivatives” (Eli Lilly and Company, priority 2015, dated 2018):

Tests used:
male c57BL/6 mice [1] = assay: GLP-1 secretion in vivo, 12 hour PK/PD study; parameters: species or system mouse; settings: for Active GLP-1 AUC Fold Increase: vs vehicle
Method: Use male c57BL/6 mice from Harlan Laboratories at 8-9 weeks of age to evaluate the effects of the compound of Example 2 on GLP-1 Secretion in vivo during a 12 hour pharmacokinetic/pharmacodynamic (PK/PD) study. Maintain mice under approved Animal Care and Use protocols for Lilly Research Laboratories and house on a 12 hour light cycle from 6 am to 6 pm. The day prior to the evaluation, fast the mice at 6 pm. The following day at 6 am, measure body weight and administer vehicle (HEC 1%/Tween 80 0.25%/Antifoam 0.05%) or the compound of Example 2 alone in vehicle (HEC 1%/Tween 80 0.25%/Antifoam 0.05% suspension). Collect blood samples for measurement of active GLP-1 levels and plasma exposure (˜150 μl into EDTA coated Sarstedt Microvette® CB300 K2E tubes) at 0.25, 0.5, 1, 2, 4, 6, 9, 12 hours post-administration (only two samples collected from each mouse, euthanizing immediately following the second blood collection) Immediately after collecting the blood, preserve active GLP-1 samples with 5 μl of a mixture of DPP4 inhibitor (Bio Trend Cat. No. DPP-4)/aprotinin (Fisher BioReagents, Cat. No. BP250310), store on wet ice, spin down (3500 rpm, 4° C.). Draw off plasma, plate and freeze. Store GLP-1 samples at −80° C. until they can be analyzed utilizing a Meso Scale Discovery Active GLP-1 (v2) Kit (Cat. No. K150JWC-2). Calculate area under the curve (AUC) values.

mouse SSTR5 = target: T1, mouse SSTR5 (Mus musculus, UniProt O08858); assay: Somatostatin binding assay (SPA, 125I-Somatostatin 14), mouse SSTR5 membranes; settings: transiently expressed mouse SSTR5 membranes, 0.25 nM [125I]-Somatostatin 14
T1 construct: expressed in transfected cells; host or cells: probably CHO ('CHO-SSTR5 receptors')
T1 sequence (O08858 1-362): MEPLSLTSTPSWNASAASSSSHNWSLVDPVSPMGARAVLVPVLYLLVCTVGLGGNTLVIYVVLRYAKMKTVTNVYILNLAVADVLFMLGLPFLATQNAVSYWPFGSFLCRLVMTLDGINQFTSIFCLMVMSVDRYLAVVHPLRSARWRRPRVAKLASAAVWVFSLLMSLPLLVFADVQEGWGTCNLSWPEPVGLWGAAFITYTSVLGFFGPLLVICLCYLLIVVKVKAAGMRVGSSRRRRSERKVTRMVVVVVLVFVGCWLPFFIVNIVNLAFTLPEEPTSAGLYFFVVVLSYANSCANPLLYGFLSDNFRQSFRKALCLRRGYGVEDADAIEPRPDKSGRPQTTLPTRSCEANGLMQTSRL
Method: (§1) The antagonistic effect of the compound of Example 2 can be evaluated in human and mouse SSTR5 binding assays utilizing a scintillation proximity assay (SPA) format for a concentration response curve (CRC) (^125I-Somatostatin 14 binding to CHO-SSTR5 receptors). Perform measurement of SSTR5 binding utilizing either human somatostatin 5 membranes (manufactured by Perkin Elmer (ES-522-M400UA)) at a concentration of 0.4 μg/well or transiently expressed mouse SSTR5 membranes (generated in-house using Lipofectamine 2000 according to the manufacture's protocol (Life Technologies)) at a concentration of 8 μg/well. Homogenize membranes or dilute in buffer (prepare buffer from 25 mM HEPES (manufactured by HyClone), 5 mM MgCl2 (manufactured by Sigma), 1 mM CaCl2 (manufactured by Sigma), 0.5% BSA, pH 7.4 (manufactured by Gibco)).

hSSTR5 [2] = target: T2, hSSTR5 (Homo sapiens, UniProt P35346); assay: Somatostatin binding assay (SPA, 125I-Somatostatin 14), human SSTR5 membranes; parameters: purchased Perkin Elmer ES-522-M400UA; host or cells: CHO (the text speaks of CHO-SSTR5 receptors); settings: human somatostatin 5 membranes, 0.25 nM [125I]-Somatostatin 14
T2 sequence (P35346 whole entry): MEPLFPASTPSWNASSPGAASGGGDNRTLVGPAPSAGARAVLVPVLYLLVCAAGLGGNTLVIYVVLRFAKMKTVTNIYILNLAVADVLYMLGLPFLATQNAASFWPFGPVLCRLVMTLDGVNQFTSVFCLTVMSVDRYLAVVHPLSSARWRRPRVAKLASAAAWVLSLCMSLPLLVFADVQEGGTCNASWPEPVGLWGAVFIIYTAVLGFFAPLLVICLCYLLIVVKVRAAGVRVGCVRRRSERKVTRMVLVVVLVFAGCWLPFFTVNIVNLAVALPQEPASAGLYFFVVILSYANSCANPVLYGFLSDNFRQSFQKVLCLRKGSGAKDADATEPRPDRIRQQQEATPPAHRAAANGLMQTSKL
Method: as §1

hSSTR5 [3] = target: T2, hSSTR5; assay: β-Arrestin whole cell functional assay (PathHunter CHO-K1 hSSTR5 β-arrestin cells); format: cell-based; parameters: host or cells: CHO-K1 (PathHunter engineered line); settings: EC80 agonist 37.5 nM SST14
Method: A β-arrestin whole cell, functional assay, utilizing U20S cells (human osteosarcoma cells), can directly measure effects of the compound of Example 2 on GPCR activity by determining its effects on the interaction of β-arrestin with the activated GPCR. Perform the CRC measurement of β-arrestin activity utilizing PathHunter CHO-K1 hSSTR5 β-arrestin cells from DiscoveRx (93-0402C2). Plate cells at a concentration of 5K/well in 50 μl of assay plating media in 384-well White Plates with opaque bottom (manufactured by Corning (3570)) and incubate overnight at 37° C./5% CO2. Prepare test solutions by diluting 3 μl of Example 2 with 27 μl of DMSO for a step down dilution. Mix the diluted plate of the current invention on a plate shaker for five minutes. Wash cells with 50 μl of PBS (manufactured by HyClone) three times using a plate washer. After washing, use a Wellmate to add 15 μl of assay buffer (assay buffer prepared from HBSS (manufactured by HyClone), 20 mM HEPES (manufactured by HyClone) with 0.1% BSA (manufactured by Gibco)) to the cells followed by 100 nl of the present invention serial dilution. Incubate the cells at 37° C./5% CO2 for 30 min.

male c57BL/6 mice [4] = assay: Oral Glucose Tolerance Test (OGTT): glucose and active GLP-1; format: in vivo, mouse; settings: for Active GLP-1 Fold Increase / Glucose % Lowering: vs vehicle
Method: Maintain mice under approved Animal Care and Use protocols for Lilly Research Laboratories and house on a 12 hour light cycle from 6 am to 6 pm. For the OGTT, fast the mice between 3 & 4 pm. The following day at 6 am, measure body weights and collect baseline blood samples via tail vein for glucose (Roche Aviva glucometer). […] No. […] No. DPP-4)/aprotinin (Fisher BioReagents, Cat. No. BP250310), store on wet ice, spin down (3500 rpm, 4° C.), draw off plasma, plate and freeze. […] No. […]-2). Calculate area under the curve (AUC) values.

[5] = Example 1 0.3 mg/kg orally 90 min before glucose bolus
[6] = Example 1 30 mg/kg orally 90 min before glucose bolus
[7] = Sitagliptin 10 mg/kg orally 90 min before glucose bolus

With `CCOc1cc(CN2CCC3(CC2)CN(c2ccc(C(=O)O)cc2)C(=O)N3)c(C2CC2)cc1C` [Example 2, 4-[8-[(2-Cyclopropyl-5-ethoxy-4-methyl-phenyl)methyl]-2-oxo-1,3,8-triazaspiro[4.5]decan-3-yl]benzoic acid hydrate] the “Active GLP-1 AUC (0-12 hours)” value (male c57BL/6 mice [1]; 0.3 mg/kg, fasted mice) was 60.2 ± 2.9 pg/mL-hour, the “Active GLP-1 AUC Fold Increase” value (male c57BL/6 mice [1]; 0.3 mg/kg) was 1.9 and the “Active GLP-1 AUC (0-12 hours)” value (male c57BL/6 mice [1]; 1 mg/kg, fasted mice) was 71.2 ± 3.3 pg/mL-hour. The “Active GLP-1 AUC Fold Increase” value (male c57BL/6 mice [1]; 1 mg/kg) was 2.2, the “Active GLP-1 AUC (0-12 hours)” value (male c57BL/6 mice [1]; 3 mg/kg, fasted mice) was 72.5 ± 4.3 pg/mL-hour and the “Active GLP-1 AUC Fold Increase” value (male c57BL/6 mice [1]; 3 mg/kg) was 2.3. The “Active GLP-1 AUC (0-12 hours)” value (male c57BL/6 mice [1]; 10 mg/kg, fasted mice) was 87.3 ± 3.8 pg/mL-hour, the “Active GLP-1 AUC Fold Increase” value (male c57BL/6 mice [1]; 10 mg/kg) was 2.7 and the “Active GLP-1 AUC (0-12 hours)” value (male c57BL/6 mice [1]; 30 mg/kg, fasted mice) was 86.3 ± 4.6 pg/mL-hour. The “Active GLP-1 AUC Fold Increase” value (male c57BL/6 mice [1]; 30 mg/kg) was 2.7, the “effect on active GLP-1 (in words)” value (male c57BL/6 mice [1]; fasted mice, no glucose load) was “non-glucose dependent effect to increase active GLP-1” and the Ki (mouse SSTR5) was 4.87 nM. It also gave a Ki (hSSTR5 [2]) of 0.54 nM and an IC50 (hSSTR5 [3]) of 0.81 nM.
With `CCOc1cc(CN2CCC3(CC2)CN(c2ccc(C(=O)O)cc2)C(=O)N3)c(C2CC2)cc1C.Cl` [Example 1, 4-[8-[(2-Cyclopropyl-5-ethoxy-4-methyl-phenyl)methyl]-2-oxo-1,3,8-triazaspiro[4.5]decan-3-yl]benzoic acid hydrochloride] the “Active GLP-1 AUC (0-60 min)” value (male c57BL/6 mice [4]; [5]) was 93.2 ± 15.5 pg/mL-min, the “Glucose AUC (0-60 min)” value (male c57BL/6 mice [4]; [5]) was 7441 ± 612 mg·min/dL and the “Active GLP-1 Fold Increase” value (male c57BL/6 mice [4]; Example 1 0.3 mg/kg orally) was 1.8. The “Glucose % Lowering” value (male c57BL/6 mice [4]; Example 1 0.3 mg/kg orally) was 23%, the “Active GLP-1 AUC (0-60 min)” value (male c57BL/6 mice [4]; [6]) was 151 ± 14.0 pg/mL-min and the “Glucose AUC (0-60 min)” value (male c57BL/6 mice [4]; [6]) was 5674 ± 360 mg·min/dL. The “Active GLP-1 Fold Increase” value (male c57BL/6 mice [4]; Example 1 30 mg/kg orally) was 2.9, the “Glucose % Lowering” value (male c57BL/6 mice [4]; Example 1 30 mg/kg orally) was 41% and the “effect on GLP-1 in OGTT (in words)” value (male c57BL/6 mice [4]; OGTT in mice) was “increased GLP-1 activity”. The “effect on glucose in OGTT (in words)” value (male c57BL/6 mice [4]; OGTT in mice) was “glucose lowering effect”.
`N[C@@H](CC(=O)N1CCn2c(nnc2C(F)(F)F)C1)Cc1cc(F)c(F)cc1F` [Sitagliptin, sitagliptin, reference compound] was tested, and the “Active GLP-1 AUC (0-60 min)” value (male c57BL/6 mice [4]; [7]) was 343 ± 73 pg/mL-min, the “Glucose AUC (0-60 min)” value (male c57BL/6 mice [4]; [7]) was 5308 ± 237 mg·min/dL and the “Active GLP-1 Fold Increase” value (male c57BL/6 mice [4]; Sitagliptin 10 mg/kg orally) was 6.6. The “Glucose % Lowering” value (male c57BL/6 mice [4]; Sitagliptin 10 mg/kg orally) was 45%.
